From patent US20070248996A1, “Modulators of beta-amyloid peptide aggregation comprising D-amino acids” (Paraecis Pharmaceuticals, Inc., priority 1995, published 2007)
Like-named read-outs stand apart in the source and are kept apart here. Square brackets hold non-standard residues; d marks the D form. Peptide text beside a SMILES is read from it. * marks the point of attachment. Isoquinolin(3-yl)carbonyl = O=C(c1cc2ccccc2cn1)*; Benzoyl(4-OH) = O=C(c1ccc(O)cc1)*; d3Pal = N[C@H](Cc1cccnc1)C(=O)O

Target: Aβ1-40 (Homo sapiens, UniProt P05067)
Sequence (P05067 672-711): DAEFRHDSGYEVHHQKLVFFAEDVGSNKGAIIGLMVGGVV
Assay type: biochemical
Parameters: ΔLag: unit not given here
Conditions: for ΔLag 5.0 μM / ΔLag 0.5 μM / ΔLag […]: Table VI; for ΔLag 5.0 μM: 5.0 μM test compound; for ΔLag: Table XI; for ΔLag 3 μM: 3 μM test compound; for ΔLag 4 μM: 4 μM test compound; for ΔLag […]: […] test compound
Text: The nucleation assay is employed to determine the ability of test compounds to alter (e.g. inhibit) the early events in formation of β-AP fibers from monomeric β-AP. Characteristic of a nucleated polymerization mechanism, a lag time is observed prior to nucleation, after which the peptide rapidly forms fibers as reflected in a linear rise in turbidity. The time delay before polymerization of β-AP monomer can be quantified as well as the extent of formation of insoluble fiber by light scattering (turbidity). Polymerization reaches equilibrium when the maximum turbidity reaches a plateau The turbidity of a solution of natural β-AP in the absence or presence of various concentrations of a β-amyloid modulator compound is determined by measuring the apparent absorbance of the solution at 405 nm (A405 nm) over time. The threshold of sensitivity for the measurement of turbidity is in the range of 15-20 μM β-AP. […] This assay can be performed using stirring or shaking to accelerate polymerization, thereby increasing the speed of the assay. Moreover the assay can be adapted to a 96-well plate format to screen multiple compounds.
HFIP-solubilized peptide is sonicated in a waterbath sonicator for 5 min at highest setting, then evaporated to dryness under a stream of argon. The peptide film is resuspended in anhydrous dimethylsulfoxide (DMSO) at a concentration of 6.9 mg/ml (25× concentration), sonicated for 5 min as before, then filtered through a 0.2 micron nylon syringe filter (VWR cat. No.28196-050). Test compounds are dissolved in DMSO at a 100× concentration. […] Ten microliters of the mixture is then added to the bottom of a well of a Corning Costar ultra low binding 96-well plate (Coming Costar, Cambridge Mass.; cat. No. 2500). Ninety microliters of water is added to the well, the plate is shaken on a rotary shaken at a constant speed at room temperature for 30 seconds, an additional 100 μl of 2× PTL buffer (20 mM NaH2PO4, 300 mM NaCl, pH 7.4) is added to the well, the plate is reshaken for 30 seconds and a baseline (t=0) turbidity reading is taken by measuring the apparent absorbance at 405 nm using a Bio-Rad Model 450 Microplate Reader. The plate is then returned to the shaker and shaken continuously for 5 hours. Turbidity readings are taken at 15 minute intervals.
β-amyloid aggregation in the absence of any modulators results in enhanced turbidity of the natural β-AP solution (i.e., an increase in the apparent absorbance at 405 nm over time). […]

[1] = Table IV, hydrophobic modifying groups, 5 μM test compound
[2] = Table I, 5 μM Aβ1-40, 2 μM test compound, ratio of lag time with compound to lag time of control
[3] = Table I, 5 μM Aβ1-40, 5 μM test compound, ratio of lag time to control
[4] = Table III, modifying groups derived from bile acids, 5 μM test compound
[5] = Table II, second series, different stock of Aβ1-40, 2 μM test compound
[6] = Table II, second series, different stock of Aβ1-40
[7] = Table II, second series, different stock of Aβ1-40, 5 μM test compound
[8] = Table V, hydroxylated and oxygenated modifying groups, 5 μM test compound

Compound: Acetyl-d(LVYFA)-nh2 [PPI-505]
- ΔLag 5.0 μM: 1.0

Compound: 4-Hydroxybenzoyl-d(LFFFL)-nh2 [PPI-643]
- ΔLag 5 μM (Table IX, 5 μM test compound): 2.2

Compound: 3-Formylbenzoyl-d(LVFFA)-nh2 [PPI-546]
- ΔLag 5 μM (Table IX, 5 μM test compound): 1.9

Compound: D-3-Phenyllactyl-d(FFFVL)-nh2 [PPI-635]
- ΔLag 5 μM (Table IX, 5 μM test compound): 2.5

Compound: CC(C)C[C@@H](N)C(=O)N[C@@H](C(=O)N[C@H](Cc1ccccc1)C(=O)N[C@H](Cc1ccccc1)C(=O)N[C@H](Cc1ccccc1)C(N)=O)C(C)C [PPI-656, H-d(LVFFF)-nh2] (H-[dL][dV][dF][dF][dF]-NH2)
- ΔLag (0.5 μM test compound): 2.3
- ΔLag (5 μM test compound): >2.5

Compound: 4-Methylvaleryl-d(LVFFA)-nh2 [PPI-524]
- ΔLag 5 μM [1]: 1.6

Compound: 3-Hydroxycinnamoyl-d(LVFFA)-nh2 [PPI-538]
- ΔLag 5 μM (Table IX, 5 μM test compound): 2.0

Compound: CA-LVYFA-cooh [PPI-399]
- ΔLag 2 μM [2]: 3.0
- ΔLag 5 μM [3]: 6

Compound: Cholyl-LVFFA-oh [PPI-424]
- ΔLag 5 μM [4]: >6.0

Compound: Butanoyl-d(LVFFA)-nh2 [PPI-525]
- ΔLag 5 μM [1]: 1.0

Compound: 4-(2-Hydroxyphenyl)propionyl-d(AFFVL)-nh2 [PPI-611]
- ΔLag 5 μM (Table IX, 5 μM test compound): 3.2

Compound: L-3-Phenyllactyl-d(AFFVL)-nh2 [PPI-608]
- ΔLag 5 μM (Table IX, 5 μM test compound): >6

Compound: h-d(LVFF)-nh2 [PPI-471]
- ΔLag 2 μM [5]: 2.6
- ΔLag 3 μM [6]: 2.6
- ΔLag 4 μM [6]: 2.6
- ΔLag 5 μM [7]: 2.4

Compound: H-d(LVFFL)-nh2 [PPI-655]
- ΔLag 5 μM (Table X, 5 μM test compound): >6

Compound: 4-Hydroxy-3-methoxycinnamoyl-d(LVFFA)-nh2 [PPI-555]
- ΔLag 5 μM (Table IX, 5 μM test compound): 1.7

Compound: (±)-Mandelyl-d(LVFF)-nh2 [PPI-482 (isomer 1)]
- ΔLag 5 μM [8]: 1.5

Compound: h-d(AFFFL)-nh2 [PPI-598]
- ΔLag 0.5 μM (0.5 μM test compound): 1.3
- ΔLag 5.0 μM: 6.3
- ΔLag […]: 2.0
- ΔLag 5 μM (Table X, 5 μM test compound): >6

Compound: Benzoylpropanoyl-d(LVFF)-nh2 [PPI-489]
- ΔLag 5 μM [8]: 1.2

Compound: (±)-Mandelyl-d(LVFF)-nh2 [PPI-482 (isomer 2)]
- ΔLag 5 μM [8]: 1.6

Compound: cholyl-D-Leu-D-Val-D-Phe-D-Phe-D-Ala-NH2 [PPI-457]
- ΔLag 5 μM [3]: >10
- ΔLag 5 μM (Table IX, 5 μM test compound): >6

Compound: h-d(VF)-PEA [PPI-493]
- ΔLag 2 μM [5]: 1.0
- ΔLag 3 μM [6]: 1.0
- ΔLag 4 μM [6]: 1.0
- ΔLag 5 μM [7]: 1.9

Compound: H-d(FFVL)-nh2 [PPI-602]
- ΔLag 5 μM (Table X, 5 μM test compound): 1.6

Compound: 3,4-Dihydroxycinnamoyl-d(LVFF)-nh2 [PPI-491]
- ΔLag 5 μM [8]: 3.0

Compound: 2-Formylphenoxyacetyl-d(LVFFA)-nh2 [PPI-554]
- ΔLag 5 μM (Table IX, 5 μM test compound): 2.6

Compound: 2,4-Dihydroxybenzoyl-d(LVFFA)-nh2 [PPI-532]
- ΔLag 5 μM (Table IX, 5 μM test compound): 1.7

Compound: Ac-d(LVFFA)-nh2 [PPI-501]
- ΔLag 5 μM (Table IX, 5 μM test compound): 1.4

Compound: H-d(A[homoPhe][homoPhe]VL)-nh2 [PPI-571]
- ΔLag 5 μM (Table X, 5 μM test compound): >6

Compound: Pepstatin A [PPI-516, reference compound]
- ΔLag 5 μM [8]: 1.6

Compound: trans-Cinnamoyl-d(LVFF)-nh2 [PPI-490]
- ΔLag 5 μM [1]: 1.0

Compound: Triphenylacetyl-d(LVFF)-nh2 [PPI-485]
- ΔLag 5 μM [1]: 2.7

Compound: Hydrocinnamoyl-d(FFFVL)-nh2 [PPI-636]
- ΔLag 5 μM (Table IX, 5 μM test compound): 1.7

Compound: H-d(LFFFL)-nh2 [PPI-638]
- ΔLag 5 μM (Table X, 5 μM test compound): >6

Compound: CC(C)C[C@@H](NC(=O)[C@H](NC(=O)[C@@H](Cc1ccccc1)NC(=O)[C@@H](Cc1ccccc1)NC(=O)[C@@H](Cc1cccnc1)NC(=O)c1ccc(O)cc1)C(C)C)C(N)=O [PPI-665, 4-Hydroxybenzoyl-d(Pal-FFVL)-nh2] ({Benzoyl(4-OH)}-[d3Pal][dF][dF][dV][dL]-NH2)
- ΔLag (0.5 μM test compound): 1.5
- ΔLag (5 μM test compound): 2

Compound: 3,4-Dihydroxycinnamoyl-d(LVFFA)-nh2 [PPI-543]
- ΔLag 5 μM (Table IX, 5 μM test compound): 1.6

Compound: CC(C)C[C@@H](N)C(=O)N[C@@H](C(=O)N[C@H](Cc1ccccc1)C(=O)N[C@H](Cc1ccccc1)C(=O)N[C@@H](C(N)=O)C(C)C)C(C)C [PPI-657, H-d(LVFFV)-nh2] (H-[dL][dV][dF][dF][dV]-NH2)
- ΔLag (0.5 μM test compound): 1.7
- ΔLag (5 μM test compound): >10

Compound: cholyl-Leu-Val-Phe-Phe-Ala-NH2 [PPI-382]
- ΔLag 2 μM [2]: >10
- ΔLag 5 μM [3]: >12

Compound: 2-Hydroxyphenylacetyl-d(LVFF)-nh2 [PPI-481]
- ΔLag 5 μM [8]: 2.0

Compound: D-3-Phenyllactyl-d(AFFVL)-nh2 [PPI-607]
- ΔLag 5 μM (Table IX, 5 μM test compound): 3.1

Compound: CC(C)C[C@@H](NC(=O)c1ccc(O)cc1)C(=O)N[C@@H](C(=O)N[C@H](Cc1ccccc1)C(=O)N[C@H](Cc1ccc(O)cc1)C(=O)N[C@H](C)C(N)=O)C(C)C [PPI-772, 4-Hydroxybenzoyl-d(LVFYA)-nh2] ({Benzoyl(4-OH)}-[dL][dV][dF][dY][dA]-NH2)
- ΔLag (5 μM test compound): 2

Compound: CA-d(AFFVL)-cooh [PPI-454]
- ΔLag 2 μM [2]: 4.0
- ΔLag 5 μM [3]: >12

Compound: 3,7-Dihydroxy-2-naphthoyl-d(FFFVL)-nh2 [PPI-650]
- ΔLag 5 μM (Table IX, 5 μM test compound): 2.2

Compound: CC(C)C[C@@H](NC(=O)c1ccc(O)cc1)C(=O)N[C@@H](C(=O)N[C@H](Cc1ccc(O)cc1)C(=O)N[C@H](Cc1ccccc1)C(=O)N[C@H](C)C(N)=O)C(C)C [PPI-774, 4-Hydroxybenzoyl-d(LVYFA)-nh2] ({Benzoyl(4-OH)}-[dL][dV][dY][dF][dA]-NH2)
- ΔLag (5 μM test compound): 1

Compound: 4-Hydroxyphenylacetyl-d(FFFVL)-nh2 [PPI-651]
- ΔLag 5 μM (Table IX, 5 μM test compound): 2.1

Compound: h-d(FFFVL)-nh2 [PPI-579]
- ΔLag 0.5 μM (0.5 μM test compound): 1.8
- ΔLag 5.0 μM: >7.5
- ΔLag […]: 6.3
- ΔLag 5 μM (Table X, 5 μM test compound): >6

Compound: Hydrocinnamoyl-d(FFVL)-oh [PPI-619]
- ΔLag 5 μM (Table IX, 5 μM test compound): 2.0

Compound: CC(C)C[C@@H](NC(=O)[C@H](NC(=O)[C@@H](Cc1ccccc1)NC(=O)[C@@H](Cc1ccccc1)NC(=O)[C@@H](C)NC(=O)CN)C(C)C)C(N)=O [PPI-734, H-Glycyl-d(AFFVL)-nh2]
- ΔLag (5 μM test compound): >10

Compound: CC(C)C[C@@H](NC(=O)[C@H](NC(=O)[C@@H](Cc1ccccc1)NC(=O)[C@@H](Cc1ccccc1)NC(=O)[C@@H](C)NC(=O)c1cc2ccccc2cn1)C(C)C)C(N)=O [PPI-749] ({Isoquinolin(3-yl)carbonyl}-[dA][dF][dF][dV][dL]-NH2)
- ΔLag (5 μM test compound): 3

Compound: CA-d(LV(IY)FA)-oh [PPI-462]
- ΔLag 2 μM [5]: 2.7
- ΔLag 3 μM [6]: >2.7
- ΔLag 4 μM [6]: >2.7
- ΔLag 5 μM [7]: >2.7

Compound: Dihphenylacetyl-d(LVFF)-nh2 [PPI-484]
- ΔLag 5 μM [1]: 1.3

Compound: 3-(2-Hydroxyphenyl)propionyl-d(AFFVL)-nh2 [PPI-610]
- ΔLag 5 μM (Table IX, 5 μM test compound): 4.5

Compound: 3-(2-Hydroxyphenyl)propionyl-d(FFVL)-nh2 [PPI-615]
- ΔLag 5 μM (Table IX, 5 μM test compound): 2.0

Compound: Chenodeoxycholyl-LVFFA-oh [PPI-521]
- ΔLag 5 μM [4]: >2.3
- ΔLag 5 μM (Table IX, 5 μM test compound): 3.6

Compound: h-d(AFFVL)-nh2 [PPI-500]
- ΔLag 0.5 μM (0.5 μM test compound): 1.0
- ΔLag 5.0 μM: >6.0
- ΔLag […]: 1.8

Compound: Glycolyl-d(AFFLL)-nh2 [PPI-592]
- ΔLag 5 μM (Table IX, 5 μM test compound): 1.8

Compound: (±)-Mandelyl-d(AFFVL)-nh2 [PPI-584]
- ΔLag 5 μM (Table IX, 5 μM test compound): 4.8

Compound: DL-3-(4-Hydroxyphenyl)Lactyl-d(LVFFA)-nh2 [PPI-599]
- ΔLag 5 μM (Table IX, 5 μM test compound): 1.4
